What is called Kb is the affinity of an antagonist, worked out from how it opposes an agonist.

Where a name gives a salt, the structure may show the parent alone. Some results are limits rather than exact numbers.

This test concerns the target T1, histamine H3 receptor (Homo sapiens, UniProt Q9Y5N1).
T1 construct: expressed in transfected cells; host or cells: CHO K1 cells carrying pSwitch, transfected with pGeneH3 and induced with mifepristone; clone 3H3; membranes
Put plainly: Histamine H3 functional antagonist assay ([35S]GTPγS SPA, membranes of CHO K1 cells expressing human H3). The test is classed as biochemical. The following applies: functional antagonism of histamine (0.3 μM) stimulated [35S]GTPγS binding, membranes of CHO K1 cells with human histamine H3. How it is done: A membrane preparation containing histamine H3 receptors may be prepared in accordance with the following procedures:
Ligated DNA was transformed into competent DH5α E. coli host bacterial cells and plated onto Luria Broth (LB) agar containing Zeocin™ (an antibiotic which allows the selection of cells expressing the sh ble gene which is present on pGene and pSwitch) at 50 μg ml^−1. Colonies containing the re-ligated plasmid were identified by restriction analysis. DNA for transfection into mammalian cells was prepared from 250 ml cultures of the host bacterium containing the pGeneH3 plasmid and isolated using a DNA preparation kit (Qiagen Midi-Prep) as per manufacturers guidelines (Qiagen).
CHO K1 cells previously transfected with the pSwitch regulatory plasmid (InVitrogen) were seeded at 2×10e6 cells per T75 flask in Complete Medium, containing Hams F12 (GIBCOBRL, Life Technologies) medium supplemented with 10% v/v dialysed foetal bovine serum, L-glutamine, and hygromycin (100 μg ml^−1), 24 hours prior to use. Plasmid DNA was transfected into the cells using Lipofectamine plus according to the manufacturers guidelines (InVitrogen). 48 hours post transfection cells were placed into complete medium supplemented with 500 μg ml^−1 Zeocin™.
10-14 days post selection 10 nM Mifepristone (InVitrogen), was added to the culture medium to induce the expression of the receptor. […] Approximately 1×10e7 cells were examined for receptor expression by staining with a rabbit polyclonal antibody, 4a, raised against the N-terminal domain of the histamine H3 receptor, incubated on ice for 60 minutes, followed by two washes in sorting medium. […] Following two further washes with Sorting Medium, cells were filtered through a 50 μm Filcon™ (BD Biosciences) and then analysed on a FACS Vantage SE Flow Cytometer fitted with an Automatic Cell Deposition Unit. […] Positively stained cells were sorted as single cells into 96-well plates, containing Complete Medium containing 500 μg ml^−1 Zeocin™ and allowed to expand before reanalysis for receptor expression via antibody and ligand binding studies.
All steps of the protocol are carried out at 4° C. and with pre-cooled reagents. The cell pellet is resuspended in 10 volumes of buffer A2 containing 50 mM N-2-hydroxyethylpiperazine-N′-2-ethanesulfonic acid (HEPES)(pH 7.40) supplemented with 10e−4M leupeptin (acetyl-leucyl-leucyl-arginal; Sigma L2884), 25 μg/ml bacitracin (Sigma B0125), 1 mM ethylenediamine tetra-acetic acid (EDTA), 1 mM phenylmethylsulfonyl fluoride (PMSF) and 2×10e−6M pepstain A (Sigma). The cells are then homogenised by 2×15 second bursts in a 1 litre glass Waring blender, followed by centrifugation at 500 g for 20 minutes. The supernatant is then spun at 48,000 g.for 30 minutes. The pellet is resuspended in 4 volumes of buffer A2 by vortexing for 5 seconds, followed by homogenisation in a Dounce homogeniser (10-15 strokes). At this point the preparation is aliquoted into polypropylene tubes and stored at −70° C. […]
The plate is then incubated on a shaker at room temperature for 30 minutes followed by centrifugation for 5 minutes at 1500 rpm. The plate is read between 3 and 6 hours after completion of centrifuge run in a Wallac Microbeta counter on a 1 minute normalised tritium count protocol. Data is analysed using a 4-parameter logistic equation. Basal activity used as minimum i.e. histamine not added to well.
(In general: GTPγS is a poorly hydrolysed GTP analogue; its binding reports G protein activation.)

T1 sequence (Q9Y5N1 whole entry): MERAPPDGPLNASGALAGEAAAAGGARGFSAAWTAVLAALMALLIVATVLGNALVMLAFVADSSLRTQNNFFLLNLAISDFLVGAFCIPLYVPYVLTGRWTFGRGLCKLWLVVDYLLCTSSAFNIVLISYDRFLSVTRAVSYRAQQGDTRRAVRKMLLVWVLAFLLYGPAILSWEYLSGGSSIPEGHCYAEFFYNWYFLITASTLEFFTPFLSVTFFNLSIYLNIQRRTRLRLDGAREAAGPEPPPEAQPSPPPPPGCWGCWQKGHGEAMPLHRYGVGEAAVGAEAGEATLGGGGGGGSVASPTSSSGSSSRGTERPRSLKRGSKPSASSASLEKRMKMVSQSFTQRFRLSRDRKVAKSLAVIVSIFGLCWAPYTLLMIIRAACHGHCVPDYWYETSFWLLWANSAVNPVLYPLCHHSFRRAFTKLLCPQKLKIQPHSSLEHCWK

As for `CC(C)N1CCCN(C(=O)C2CCN(c3ccc(C(F)(F)F)nc3)CC2)CC1` [Example E135, 1-Isopropyl-4-[1-(6-trifluoromethylpyridin-3-yl)-pipenidine-4-carbonyl]-[1,4]-diazepane, hydrochloride], the Kb is < 0.316 nM.
Next, `CC(C)N1CCN(C(=O)C2CCN(c3cnc(C(F)(F)F)cn3)CC2)C[C@@H]1C` [Example E87, (S)-1-Isopropyl-4-[1-(5-trifluoromethyl-pyrazin-2-yl)-piperidine4-carbonyl]-2-methyl piperazine]: < 3.16 nM; `CC(C)N1CCN(C(=O)C2CCN(c3ccc(-c4nnc(-c5ccccc5)o4)cc3)CC2)CC1` [Example E90, 1-Isopropyl-4-{1-[4-(5-phenyl-1,3,4-oxadiazol-2-yl)phenyl]-piperidine-4-carbonyl} piperazine]: < 3.16 nM; `CC(C)N1CCCN(C(=O)C2CCN(c3ccc(Cl)c(Cl)c3)CC2)CC1` [Example E54, 1-Isopropyl-4-[1-(3,4-dichlorophenyl)-piperidine-4-carbonyl]-[1,4]-diazepane]: < 3.16 nM.
Next, `COC(=O)c1cnc(N2CCC(C(=O)N3CCN(C(C)C)CC3)CC2)cc1C(F)(F)F` [Example E4, 1-Isopropyl-4-[1-(5-methoxycarbonyl-4-trifluoromethylpyridin-2-yl)-piperidine-4-carbonyl]-piperazine]: < 3.16 nM; `CC(C)N1CCCN(C(=O)C2CCN(c3ccc(Oc4ccccc4)cc3)CC2)CC1` [Example E61, 1-Isopropyl-4-[1-(4-phenoxyphenyl)-piperidine-4-carbonyl]-[1,4]-diazepane]: < 3.16 nM.
Next, `CC[C@H](C)N1CCN(C(=O)C2CCN(c3ccc(C#N)cc3)CC2)CC1` [Example E104]: < 3.16 nM.

The values above are taken from patent publication US7592347B2, “Piperazine derivates and their use for the treatment of neurological and psychiatric diseases” (Glaxo Group Limited, priority 2003, dated 2009).
